Assay results from patent US9126973B2, “Multiheteroaryl compounds as inhibitors of H-PGDS and their use for treating prostaglandin D2 mediated diseases” (Cayman Chemical Company, Incorporated, priority 2008, dated 2015).

Columns and labels:
H-PGDS = H-PGDS (Homo sapiens (Human), UniProt O60760); assay: H-PGDS Fluorescence Polarization Binding Assay (FPBA); conditions: H-PGDS-MBP fusion enzyme, fluorescent probe, reduced glutathione 5 mM, 60-90 minutes at room temperature, 96-well format
Experimental: H-PGDS Fluorescence Polarization Binding Assay This assay essentially is available from Cayman Chemical Company as Catalog item #600007. The test data reported for the aforementioned Examples (H-PGDS FPBA IC50) were generated using a 96-well, instead of the 384-well, format. […] Assays were performed in 96-well microtiter plates in 100 μL of total sample volume. Excitation and emission wavelengths appropriate for the employed detection analyte were used. […] Twelve clean microfuge tubes were labeled A1 through A12. […] Dimethyl sulfoxide (50 μL) was added to each of tubes A1 through A11. The HQL-79 control solution was serially diluted by removing 50 μL from tube A12 and placing it in tube A11 with subsequent thorough mixing of the contents of tube A11. Next, 50 μL was removed from tube A11 and was placed into tube A10 with subsequent thorough mixing of the contents of tube A10. This process was repeated for tubes A9 through A2. […] A test compound may be dissolved in DMSO, ethanol, or methanol at several concentrations when the titration endpoint is unknown. […] Assay cocktail (95 μL) was added to each plate well. DMSO (5 μL) from microfuge tube A1 was added to each plate well A1 and B1. Positive control solution (5 μL) from microfuge tube A2 was added to each plate well A2 and B2. Positive control solution (5 μL) from microfuge tube A3 was added to each plate well A3 and B3. This procedure was continued until all the positive control standard dilutions were aliquoted. Test compound solutions (5 μL) were added to the wells. […] The IC50 for a particular test compound was obtained by performing a full concentration titration versus a full concentration titration of positive control. Comparison of a single concentration of a test compound to the maximum binding well provided an assessment of the relative affinity of the test compound for H-PGDS-MBP. The plate was covered and incubated for 60-90 minutes at room temperature. The FP signal is stable for at least two hours. […] The measurements were taken in the fluorescent polarization mode with the z-height set to the middle of the well and the G-factor set to 1.13 on a Tecan Safire 2 reader.

Chain of H-PGDS (O60760 whole entry, the tested form may be a part): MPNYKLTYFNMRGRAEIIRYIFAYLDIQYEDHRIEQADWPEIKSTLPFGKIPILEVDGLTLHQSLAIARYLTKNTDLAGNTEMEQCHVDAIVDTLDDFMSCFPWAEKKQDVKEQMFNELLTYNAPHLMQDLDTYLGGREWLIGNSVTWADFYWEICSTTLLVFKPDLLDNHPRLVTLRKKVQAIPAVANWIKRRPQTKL

O=C(c1cccnc1)N1CCC(c2nc(-c3cnc(-c4ccccc4)nc3)c[nH]2)CC1 [Example 20, (4-(4-(2-phenylpyrimidin-5-yl)-1H-imidazol-2-yl)piperidin-1-yl)(pyridin-3-yl)methanone] showed an IC50 (H-PGDS) of 0.45 µM and a melting point of 234 °C.
Cn1cncc1-c1cnc(-c2ccccc2)nc1 [Example 32, 5-(1-methyl-1H-imidazol-5-yl)-2-phenylpyrimidine] showed an IC50 (H-PGDS) of 7.6 µM and a melting point of 144 °C.
Work on c1ccc(Cn2cncc2-c2cnc(-c3ccccc3)nc2)cc1 [Example 33, 5-(1-benzyl-1H-imidazol-5-yl)-2-phenylpyrimidine] yielded an IC50 (H-PGDS) of 2 µM and a melting point of 140 °C.
Molecule c1ccc(Cn2cnc(-c3cnc(-c4ccccc4)nc3)c2)cc1 [Example 34, 5-(1-benzyl-1H-imidazol-4-yl)-2-phenylpyrimidine] has an IC50 (H-PGDS) of 4 µM and a melting point of 195 °C.
For c1ccc(Oc2ncc(-c3cnc(-c4ccccc4)[nH]3)cn2)cc1 [Example 38, 2-phenoxy-5-(2-phenyl-1H-imidazol-5-yl)pyrimidine], the IC50 (H-PGDS) was 4 µM and the melting point was 254 °C.
For c1ccc(Cc2ncc(-c3cnc(Oc4ccccc4)nc3)[nH]2)cc1 [Example 39, 5-(2-benzyl-1H-imidazol-4-yl)-2-phenoxypyrimidine], the IC50 (H-PGDS) was 10 µM and the melting point was 60 °C.
Molecule Cl.c1ccc(-c2ncc(-c3cc[nH]n3)cn2)cc1 [Example 41, 2-phenyl-5-(1H-pyrazol-3-yl)pyrimidine hydrochloride] has an IC50 (H-PGDS) of 2.4 µM and a melting point of 264 to 273 °C.
With c1ccc(-c2ncc(-c3ncco3)cn2)cc1 [Example 42, 2-(2-phenylpyrimidin-5-yl)oxazole] the IC50 (H-PGDS) was 7.8 µM and the melting point was 175 to 177 °C.
Work on c1ccc(-c2ncc(-c3nnn[nH]3)cn2)cc1 [Example 43, 2-phenyl-5-(1H-tetrazol-5-yl)pyrimidine] yielded an IC50 (H-PGDS) of 2.5 µM and a melting point of 237 °C.
c1ccc(-c2ncc(-c3ncc(-c4ccccc4)[nH]3)cn2)cc1 [Example 44, 2-phenyl-5-(5-phenyl-1H-imidazol-2-yl)pyrimidine] gave an IC50 (H-PGDS) of 2.8 µM and a melting point of 238 °C.
Molecule c1ccc(-c2ncc(-c3cnc(-c4ccccc4)o3)cn2)cc1 [Example 46, 2-phenyl-5-(2-phenylpyrimidin-5-yl)oxazole] has an IC50 (H-PGDS) of 125 µM and a melting point of 228 to 231 °C.
For c1ccc(-c2ncc(-c3csc(-c4ccccc4)n3)cn2)cc1 [Example 48, 2-phenyl-4-(2-phenylpyrimidin-5-yl)thiazole], the IC50 (H-PGDS) was > 20 µM and the melting point was 214.4 to 216.1 °C.
Work on c1ccc(-c2ncc(-c3nnc(-c4cccnc4)[nH]3)cn2)cc1 [Example 50, 2-phenyl-5-(5-(pyridin-3-yl)-1H-1,2,4-triazol-3-yl)pyrimidine] yielded an IC50 (H-PGDS) of 1 µM and a melting point of 322 to 333 °C.
For Fc1cccc(-c2nc(-c3cnc(-c4ccccc4)nc3)cs2)c1 [Example 58, 2-(3-fluorophenyl)-4-(2-phenylpyrimidin-5-yl)thiazole], the IC50 (H-PGDS) was > 20 µM and the melting point was 228 °C.
In the case of c1ccc(Cc2nc(-c3cnc(-c4ccccc4)nc3)cs2)cc1 [Example 60, 2-benzyl-4-(2-phenylpyrimidin-5-yl)thiazole], the IC50 (H-PGDS) is reported as > 20 µM and the melting point is reported as 170 °C.
For O=C(O)C(F)(F)F.c1ccc(-c2ncc(-c3csc(C4CCNCC4)n3)cn2)cc1 [Example 61, 4-(4-(2-phenylpyrimidin-5-yl)thiazol-2-yl)piperidinium 2,2,2-trifluoroacetate], the IC50 (H-PGDS) was 5 µM and the melting point was 290 °C.
COCCCNC(=O)c1csc(-c2cnc(-c3ccccc3)nc2)n1 [Example 64, N-(3-methoxypropyl)-2-(2-phenylpyrimidin-5-yl)thiazole-4-carboxamide] showed an IC50 (H-PGDS) of 3.4 µM and a melting point of 134 to 136 °C.
